Experimental findings from ChEMBL document CHEMBL2016509, “Design, synthesis and cytotoxic activities of novel hybrid compounds between 2-phenylbenzofuran and imidazole” (Bioorg Med Chem Lett, 2012) are described below.

Assay [1] has as its system SMMC-7721. The assay can be described thus: Cytotoxicity against human SMMC7721 cells after 48 hrs by MTT assay. Format: functional, cell-based. The following applies: SMMC-7721, 48 h. Background: Formazan colour is commonly taken as a measure of viable cells.
Assay [2] concerns HL-60. Description: Cytotoxicity against human HL60 cells after 48 hrs by MTT assay. Format: functional, cell-based. The note with it: HL-60, 48 h.
Assay [3] deals with SW480. The assay can be described thus: Cytotoxicity against human SW480 cells after 48 hrs by MTT assay. Format: functional, cell-based. The following applies: SW480, 48 h.
Assay [4] deals with A549. The assay can be described thus: Cytotoxicity against human A549 cells after 48 hrs by MTT assay. Format: functional, cell-based. The following applies: A549, 48 h.
The subject of assay [5] is MCF7. The assay can be described thus: Cytotoxicity against human MCF7 cells after 48 hrs by MTT assay. The note with it: MCF7, 48 h. Format: functional, cell-based.
Assay [6] deals with SMMC-7721. The assay can be described thus: Ratio of DDP IC50 to compound IC50 for human SMMC7721 cells. Format: functional.

For orientation: IC50 means the concentration at which inhibition is half-maximal. Low values mean greater potency in that assay, high ones weaker potency in that assay. For the compound `c1ccc2oc(-c3ccc(-n4ccnc4)cc3)cc2c1`, the IC50 in assay [1], in assay [2], in assay [3], in assay [4] and in assay [5] was above 40 µM throughout.

In the case of `c1ccc(C[n+]2ccn(-c3ccc(-c4cc5ccccc5o4)cc3)c2)cc1`, the 50% inhibitory concentration (IC50) was 15.1 µM in assay [1]; 5.37 µM in assay [2]; 19.9 µM in assay [3]; 25.4 µM in assay [4]; 26.9 µM in assay [5].

`Brc1ccccc1C[n+]1ccn(-c2ccc(-c3cc4ccccc4o3)cc2)c1`: the IC50 in assay [1] turned out to be 4.38 µM; in assay [2] it was 1.97 µM; in assay [3], 12.7 µM; in assay [4] it was 9.77 µM; in assay [5] it was 14.3 µM.

With `C=CC[n+]1ccn(-c2ccc(-c3cc4ccccc4o3)cc2)c1`, the IC50 in assay [1] was 27 µM; in assay [2] it was 14.5 µM; in assay [3], above 40 µM; in assay [4], 33.5 µM; in assay [5] it was 13.7 µM.

For `CCCC[n+]1ccn(-c2ccc(-c3cc4ccccc4o3)cc2)c1`, the IC50 in assay [1] is 12.7 µM; in assay [2], 11.8 µM; in assay [3], above 40 µM; in assay [4], 21.7 µM; in assay [5] it was 31.4 µM.

Consider `O=C(C[n+]1ccn(-c2ccc(-c3cc4ccccc4o3)cc2)c1)c1ccccc1`, for which the IC50 in assay [1] came out at 3.71 µM; in assay [2] it was 2.61 µM; in assay [3] it was 10.3 µM; in assay [4] it was 12.9 µM; in assay [5] it was 11.9 µM.

Take `O=C(C[n+]1ccn(-c2ccc(-c3cc4ccccc4o3)cc2)c1)c1ccc(O)cc1`: the IC50 in assay [1], in assay [2], in assay [3], in assay [4] and in assay [5] was above 40 µM in each case.

On to `COc1ccc(C(=O)C[n+]2ccn(-c3ccc(-c4cc5ccccc5o4)cc3)c2)cc1`, for which the IC50 in assay [1] worked out at 3.71 µM; in assay [2], 2.26 µM; in assay [3], 6.93 µM; in assay [4], 9.79 µM; in assay [5], 11.3 µM.

As for `O=C(C[n+]1ccn(-c2ccc(-c3cc4ccccc4o3)cc2)c1)c1ccc(F)cc1`, the IC50 in assay [1] amounted to 13.5 µM; in assay [2] it was 12.3 µM; in assay [3] it was 16.8 µM; in assay [4], 19.7 µM; in assay [5] it was 16.7 µM.

For `O=C(C[n+]1ccn(-c2ccc(-c3cc4ccccc4o3)cc2)c1)c1ccc(Br)cc1`, the IC50 in assay [1] was found to be 3.39 µM; in assay [2], 3.15 µM; in assay [3] it was 2.85 µM; in assay [4] it was 8.46 µM; in assay [5], 2.84 µM.

`O=C(C[n+]1ccn(-c2ccc(-c3cc4ccccc4o3)cc2)c1)c1ccc2ccccc2c1.[Br-]`: the “Ratio IC50” value in assay [6] was determined as 5.4. Besides, the IC50 in assay [1] is 1.65 µM; in assay [2] it was 2.49 µM; in assay [3], 3.38 µM; in assay [4] it was 10.9 µM; in assay [5], 5.87 µM.

Turning to `O=C(c1ccccc1)C(c1ccccc1)[n+]1ccn(-c2ccc(-c3cc4ccccc4o3)cc2)c1` (stereo unspecified), the IC50 in assay [1] came to 3.31 µM; in assay [2], 2.7 µM; in assay [3] it was 6.93 µM; in assay [4], 6.79 µM; in assay [5], 6.9 µM.
